Results reported in PubChem BioAssay AID1963850 (Molecular Pharmacology Branch, DTP, NCI, 2024).
Several values for one entry are separate records, joined by “and”; a condition that tells them apart may be missing. Equal values may be shown once.

Test system: 192522-019-R-J2-PDC complex tumor spheroid viability
Assay: Anticancer human tumor 192522-019-R-J2-PDC patient-derived colon adenocarcinoma cell line growth inhibition [POLQ]
Settings: for viability, T/C: stronger effect = lower value; for IC50: curve of compound
Experimental: Multicellular complex tumor spheroid response to Polymerase (POL) inhibitors (novobiocin, ART-558, RP6685) in combination with a variety of drugs and investigational agents in selected tumor cell lines
The POL inhibitors (novobiocin, ART-558, and RP6685) were evaluated both individually and in combination with standard of care and investigational anticancer small molecules within a complex spheroid model of solid tumors. . Complex spheroids include a stromal component modeled by human endothelial cells (HUVEC) and fibroblasts modeled by human mesenchymal stem cells (MSCs). The concentration ranges selected for each drug and investigational agent were based upon clinically achievable concentrations if the clinical Cmax of the agent was known.
Compounds. The drugs and investigational agents: novobiocin (NSC847541), ART-558 (NSC835418), RP-6685 (NSC848927), peposertib (NSC802822), ceralasertib (NSC780249), elimusertib (NSC800525), camonsertib (NSC841442), AZD-1390 (NSC803789), olaparib (NSC753686), talazoparib (NSC767125), rucaparib (NSC756644), sotorasib (NSC818433), MRTX-1133 (NSC836407), SN-38 (NSC673596), topotecan (NSC609699), epotoside (NSC141540), doxorubicin (NSC123127), gemcitabine (NSC613327), 5-fluorouracil (NSC19893), paclitaxel (NSC125973), vemurafenib (NSC761431), MSA-2 (NSC828583), SN-011 (NSC837082), adavosertib (NSC754352), prexasertib (NSC758257), carboplatin (NSC241240) and oxaliplatin (NSC266046), were obtained from the National Cancer Institute (NCI) Developmental Therapeutics Program Chemical Repository (21). The FDA-approved anticancer drug set is available from the Developmental Therapeutics Program at https://dtp.cancer.gov/organization/dscb/obtaining/. […] The stock solutions were prepared in dimethyl sulfoxide (DMSO, Sigma-Aldrich, St. Louis, MO, cat. D2650), except for the platinum compounds which were prepared in saline (Quality Biological, Gaithersburg, MD, cat. 114-055-101), at 800-fold the tested concentration and stored at -70 degrees C prior to their use. All drugs and investigational agents were tested over a range starting from a high concentration at or near the clinical Cmax and decreasing in half-log increments. If the clinical Cmax for an agent had not been determined, the highest concentration tested was 10 microM, except for SN-38, which was tested at a high concentration of 1 microM.
Cell Culture. All cells were maintained in an incubator at 37 degrees C and 5% CO2 with 95% humidity. The PDC lines were cultured according to standard operating procedures established by the NCI PDMR (https://pdmr.cancer.gov). Table 3 of the manuscript, lists the cell lines along with the number of the three cell types plated to form the mct-spheroids and media for tumor cell growth. After thawing, all PDC lines, except 997537-175-T-J1-PDC and 415267-285-R-J2-PDC, were cultured in Matrigel-coated flasks prepared with a working solution of 1X Ham's F-12 nutrient mix, without supplementation (Thermo Fisher Scientific, cat. 11765054), 100 U/mL penicillin-streptomycin (Thermo Fisher Scientific, cat. 15140122), and 2.5% Matrigel (Corning Inc., Corning, NY, cat. 354248) for the first three passages. The two PDC lines 997537-175-T-J1-PDC and 415267-285-R-J2-PDC were cultured on uncoated flasks. The 857933-349-R-J2-PDC line was cultured in 6C/Colon 1B media containing advanced DMEM/F-12 (Thermo Fisher Scientific, cat. 12634028), 10 mM HEPES (Thermo Fisher Scientific, cat. 15630080), 1X GlutaMAX supplement (Thermo Fisher Scientific, cat. 35050061), 0.1 mg/mL primocin (InvivoGen, San Diego, CA, cat. ant-pm-2), 10% defined fetal bovine serum, heat inactivated (HyClone Laboratories Inc., Logan, UT, cat. SH30070.03HI), 50% L-WRN conditioned media (ATCC, cat. CRL-3276), 1.25 mM N-Acetyl-L-cysteine (Sigma-Aldrich, cat. A9165), 10 mM nicotinamide (Sigma-Aldrich, cat. N0636), 1X B-27 supplement (Thermo Fisher Scientific, cat. 17504044), 1X N-2 supplement (Thermo Fisher Scientific, cat. […]
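Note: spheroids exposed to drugs for seven days before reading.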
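Throughout, for viability, T/C: 100% = DMSO vehicle control viability in luminescence.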

## C#Cc1c(F)ccc2cc(O)cc(-c3ncc4c(N5CC6CCC(C5)N6)nc(OCC56CCCN5CC(F)C6)nc4c3F)c12 (stereo not given)
Compound 0.0316 µM
  viability, T/C: 102% and 98.2% and 109%
Compound 0.1 µM
  viability, T/C: 93.6% and 81.8% and 87.3%
Compound 0.316 µM
  viability, T/C: 73.3% and 77.1% and 80.5%
Compound 1 µM
  viability, T/C: 78.4% and 77.9% and 83.4%
Compound 3.16 µM
  viability, T/C: 78.9% and 73.7% and 70.6%
Compound 10 µM
  viability, T/C: 67.8% and 64.1% and 64.3%
  IC50: > 10000 nM

## C=CC(=O)N1CCN(c2nc(=O)n(-c3c(C)ccnc3C(C)C)c3nc(-c4c(O)cccc4F)c(F)cc23)C(C)C1 (stereo not given)
Compound 0.0316 µM
  viability, T/C: 107% (2×) and 105%
Compound 0.1 µM
  viability, T/C: 92.4% and 101% and 94.3%
Compound 0.316 µM
  viability, T/C: 95% and 94.1% and 97.7%
Compound 1 µM
  viability, T/C: 106% and 102% and 109%
Compound 3.16 µM
  viability, T/C: 104% and 113% and 112%
Compound 10 µM
  viability, T/C: 104% and 109% and 108%
  IC50: > 10000 nM

## C=CCn1c(=O)c2cnc(Nc3ccc(N4CCN(C)CC4)cc3)nc2n1-c1cccc(C(C)(C)O)n1
Compound 0.00316 µM
  viability, T/C: 101% and 105% and 108%
Compound 0.01 µM
  viability, T/C: 97.8% and 97.2% and 97%
Compound 0.0316 µM
  viability, T/C: 97.5% and 100% and 99.1%
Compound 0.1 µM
  viability, T/C: 102% (2×) and 106%
Compound 0.316 µM
  viability, T/C: 85.8% and 97% and 86.1%
Compound 1 µM
  viability, T/C: 24.8% and 36.2% and 38.5%
  IC50: 627 nM and 773 nM and 764 nM

## CC(=O)O[C@H]1C(=O)[C@@]2(C)[C@H]([C@H](OC(=O)c3ccccc3)[C@]3(O)C[C@H](OC(=O)[C@H](O)[C@@H](NC(=O)c4ccccc4)c4ccccc4)C(C)=C1C3(C)C)[C@]1(OC(C)=O)CO[C@@H]1C[C@@H]2O
Compound 0.00949 µM
  viability, T/C: 90.9% and 93% and 91.4%
Compound 0.03 µM
  viability, T/C: 61.5% and 61.7% and 71.9%
Compound 0.0949 µM
  viability, T/C: 56.5% and 58.9% and 54.1%
Compound 0.3 µM
  viability, T/C: 54.5% and 54.7% and 52.9%
Compound 0.949 µM
  viability, T/C: 54.3% and 56.4% and 57.7%
Compound 3 µM
  viability, T/C: 53% and 61.1% and 54.8%
  IC50: > 3000 nM

## CC(C)n1c(=O)n(C)c2cnc3cc(F)c(-c4ccc(OCCCN5CCCCC5)nc4)cc3c21
Compound 0.0316 µM
  viability, T/C: 102% and 106% and 98.7%
Compound 0.1 µM
  viability, T/C: 87.7% and 95.6% and 105%
Compound 0.316 µM
  viability, T/C: 89.9% and 108% and 92.3%
Compound 1 µM
  viability, T/C: 114% and 122% and 112%
Compound 3.16 µM
  viability, T/C: 118% (2×) and 130%
Compound 10 µM
  viability, T/C: 92.8% and 101% and 90.6%
  IC50: > 10000 nM

## CC1COCCN1c1cc(-c2ccnn2C)c2ccnc(-c3ccn[nH]3)c2n1 (stereo not given)
Compound 0.0316 µM
  viability, T/C: 97.7% and 93.8% and 106%
Compound 0.1 µM
  viability, T/C: 76% and 76.1% and 87.4%
Compound 0.316 µM
  viability, T/C: 43.4% and 45% and 54.1%
Compound 1 µM
  viability, T/C: 33.5% (2×) and 32.2%
Compound 3.16 µM
  viability, T/C: 35.1% and 40.1% and 41%
Compound 10 µM
  viability, T/C: 48% and 44.6% and 47.2%
  IC50: 246 nM and 256 nM and 400 nM

## CC1COCCN1c1cc(C2(O)CC3CCC(C2)O3)c2cnn(-c3ccn[nH]3)c2n1 (stereo not given)
Compound 0.0316 µM
  viability, T/C: 108% and 105% and 100%
Compound 0.1 µM
  viability, T/C: 70.7% and 76.9% and 78.7%
Compound 0.316 µM
  viability, T/C: 42% and 35.6% and 46%
Compound 1 µM
  viability, T/C: 33.8% and 33.4% and 34.9%
Compound 3.16 µM
  viability, T/C: 45.5% and 42.6% and 44.3%
Compound 10 µM
  viability, T/C: 49.2% and 50.7% and 51.2%
  IC50: 234 nM and 235 nM and 272 nM

## CC1COCCN1c1cc(C2(S(C)(=N)=O)CC2)nc(-c2ccnc3[nH]ccc23)n1 (stereo not given)
Compound 0.0316 µM
  viability, T/C: 102% (2×) and 110%
Compound 0.1 µM
  viability, T/C: 90% and 103% and 101%
Compound 0.316 µM
  viability, T/C: 97% and 97.9% and 103%
Compound 1 µM
  viability, T/C: 90.6% and 100% and 91.6%
Compound 3.16 µM
  viability, T/C: 59.7% and 64.2% and 56.4%
Compound 10 µM
  viability, T/C: 31.6% and 37.1% and 31.1%
  IC50: 4700 nM and 5780 nM and 4210 nM

## CCCS(=O)(=O)Nc1ccc(F)c(C(=O)c2c[nH]c3ncc(-c4ccc(Cl)cc4)cc23)c1F
Compound 0.0316 µM
  viability, T/C: 96.5% and 100% and 106%
Compound 0.1 µM
  viability, T/C: 108% and 104% and 96.8%
Compound 0.316 µM
  viability, T/C: 105% and 96.5% and 104%
Compound 1 µM
  viability, T/C: 106% and 108% and 97.6%
Compound 3.16 µM
  viability, T/C: 116% and 106% and 120%
Compound 10 µM
  viability, T/C: 74% and 82% and 94.8%
  IC50: > 10000 nM

## CC[C@@]1(O)C(=O)OCc2c1cc1n(c2=O)Cc2cc3c(CN(C)C)c(O)ccc3nc2-1
Compound 0.000316 µM
  viability, T/C: 113% and 103% and 94.6%
Compound 0.001 µM
  viability, T/C: 94.3% and 94.9% and 92.1%
Compound 0.00316 µM
  viability, T/C: 106% and 97.8% and 101%
Compound 0.01 µM
  viability, T/C: 100% and 106% and 103%
Compound 0.0316 µM
  viability, T/C: 91.9% and 95.4% and 91.8%
Compound 0.1 µM
  viability, T/C: 70.9% and 76% and 51.1%
  IC50: > 100 nM

## CCc1c2c(nc3ccc(O)cc13)-c1cc3c(c(=O)n1C2)COC(=O)[C@]3(O)CC
Compound 0.00316 µM
  viability, T/C: 109% and 91.9% and 85.5%
Compound 0.0316 µM
  viability, T/C: 70.5% and 78% and 56.7%
Compound 0.1 µM
  viability, T/C: 56.5% and 58.4% and 51.8%
Compound 0.316 µM
  viability, T/C: 44.4% and 42.9% and 32.3%
Compound 1 µM
  viability, T/C: 27.6% and 37.6% and 25.5%
  IC50: 128 nM and 200 nM and 50.2 nM

## CCc1cc2c(N3CCc4c(cc(Cn5ccnc5)cc4-c4cn(C)nc4C(F)(F)F)C3=O)cc(C)nc2c(OC)n1
Compound 0.0316 µM
  viability, T/C: 109% and 107% and 102%
Compound 0.1 µM
  viability, T/C: 91.4% and 91% and 94.7%
Compound 0.316 µM
  viability, T/C: 80.7% and 86.7% and 85.3%
Compound 1 µM
  viability, T/C: 80.1% and 82% and 77.7%
Compound 3.16 µM
  viability, T/C: 73.1% and 73% and 75.4%
Compound 10 µM
  viability, T/C: 68.1% and 75.8% and 68.3%
  IC50: > 10000 nM

## CCc1cc2c(N3CCc4c(cc(Cn5ccnc5)cc4-c4cn(C)nc4C(F)(F)F)C3=O)ccnc2c(OC)n1
Compound 0.0316 µM
  viability, T/C: 102% (2×) and 107%
Compound 0.1 µM
  viability, T/C: 84.3% and 91.4% and 86.7%
Compound 0.316 µM
  viability, T/C: 88.2% and 90.7% and 92.4%
Compound 1 µM
  viability, T/C: 87.8% and 81.3% and 83.7%
Compound 3.16 µM
  viability, T/C: 76.5% and 75.1% and 70.2%
Compound 10 µM
  viability, T/C: 65.6% and 72.1% and 73%
  IC50: > 10000 nM
